Results: patent US7338932B2, “Methods of modulating functions of polypeptide GalNAc-transferases and of screening test substances to find agents herefor, pharmaceutical compositions comprising such agents and the use of such agents for preparing medicaments” (Glycozym APS, priority 2000, dated 2008)

Legend:
[1] = system: wild type CHO/MUC1sol-cloneC4; assay: Secretion of MUC1, western blot of medium; format: cell-based, Chinese Hamster; conditions: 1-2 mM; compared to control treated or non-treated cells
Description: In order to characterize the secreted MUC1 product SDS-PAGE western blot analysis of harvested culture medium of confluent cultures were performed. Ten to twenty μL culture supernatant was analysed directly or treated with 0.1 U/mL neuraminidase (C. Perfringes VI, Sigma) for 30-60 min at 37° C. Samples were mixed with SDS sample buffer, reduced with DTT, and run on precast 4-20% gels (Biorad). As shown in FIG. 9 anti-MUC1 antibodies detected two forms of MUC1 in the medium; a low molecular weight form migrating as 130-140 kd corresponding to unglycosylated product, and a high molecular weight form migrating above 250 kd. The high molecular weight form was sensitive to neuraminidase treatment as evidenced by a marked shift and retardation in migration. […]
Because GalNAcα-benzyl exerts separate effects on O-glycan processing and mucin expression, the use of the novel selective inhibitor of mucin expression, GalNAcβ-benzyl, allow analysis of mucin expression and secretion in different cell line models. […] Most human adenocarcinoma cell lines express and secret mucins and analysis with antibodies to detect protein expression or probes to detect mRNA can reveal the types and quantities of mucins. […] The inhibitory effect on mucin secretion can be quantified by a number of assays known to the skilled in the art including western blot, ELISA, gelfiltration, immunocapture, and other assays.

[2] = target: T1, GalNAc-T4 lectin domain (T4ld) (Homo sapiens, UniProt Q8N4A0); assay: Direct binding ELISA to GalNAc-MUC1 glycopeptide, competitive inhibition, T4ld
T1 construct: made in house; host or cells: High Five insect cells (baculovirus, pAcGP67-A)
T1 sequence (Q8N4A0 405-578): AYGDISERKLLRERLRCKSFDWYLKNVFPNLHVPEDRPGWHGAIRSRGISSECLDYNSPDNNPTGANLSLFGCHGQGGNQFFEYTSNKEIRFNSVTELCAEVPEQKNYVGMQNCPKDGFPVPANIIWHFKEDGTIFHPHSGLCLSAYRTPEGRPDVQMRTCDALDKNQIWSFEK
Description: (§1) Protein biotinylation was made as previously reported^62. The pH of 1 ml purified protein (0.3 mg/ml) in PBS was adjusted to pH 9 with 1 M NaOH and 40 μl N-hydroxy-succinimidobiotin (Sigma) dissolved in DMF (10 mg/ml) was added. The solution was mixed end-over-end for 2 hours at room temperature, and dialyzed three times against PBS and an equal volume of glycerol was added. The biotinylated proteins were stored at −20° C. in 50% glycerol until use.
(§2) Direct binding ELISA assay was developed as follows: Polystyrene microtiter plates (Maxisorb, Nunc, Denmark) were coated with peptides or enzymatically glycosylated glycopeptides in PBS overnight at 4° C. Plates were washed and blocked with 0.1% Tween20 and 0.2% BSA in PBS for 1 h at room temperature, followed by incubation with biotinylated proteins in PBS with 0.05% Tween20 for 2 h at room temperature. After four washes with PBS, plates were incubated with 1:2,000 dilution streptavidin-HRP (Sigma) in PBS for 30 min at room temperature and washed four times with PBS. Development was performed with 0.5 mg/ml o-phenylenediamine and 0.02% H2O2 at room temperature for 15 min, and reaction stopped by adding 100 μl/well of 0.5 N H2SO4. Competitive inhibition assays were done at end-point titers of GalNAc-transferase proteins with one hour preincubations with inhibitor.
(§3) In binding studies using lectins without biotinylation antibodies to the HIS-tag and the T7-tag, or in some experiments antibodies raised to GalNAc-T2 and -T4 enzymes were used to detect binding.

[3] = target: T2, GalNAc-T2 lectin domain (T2ld) (Homo sapiens, UniProt Q10471); assay: Direct binding ELISA to GalNAc-MUC1 glycopeptide, competitive inhibition, T2ld
T2 construct: made in house; host or cells: High Five insect cells (baculovirus, pAcGP67-A)
T2 sequence (Q10471 408-571): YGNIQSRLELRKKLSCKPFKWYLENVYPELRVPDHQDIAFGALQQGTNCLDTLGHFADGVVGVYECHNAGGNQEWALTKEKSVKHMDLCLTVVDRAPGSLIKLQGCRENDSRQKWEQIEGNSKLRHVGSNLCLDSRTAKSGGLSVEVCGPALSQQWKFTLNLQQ
Description: as §1, §2, §3

GalNAc-T4 = target: T3, GalNAc-T4 (Homo sapiens, UniProt Q8N4A0); assay: Inhibition of glycosylation dependent (GalNAc-glycopeptide) activity of GalNAc-T4, MALDI-TOF time-course; format: biochemical; conditions: 10 mM benzyl sugar
T3 construct: using the GalNAc-T4-sol construct that encodes residues 32-578 inserted into pT7T3U19; made in house; host or cells: High Five insect cells (baculovirus, pAcGP67)
T3 sequence (Q8N4A0 32-578): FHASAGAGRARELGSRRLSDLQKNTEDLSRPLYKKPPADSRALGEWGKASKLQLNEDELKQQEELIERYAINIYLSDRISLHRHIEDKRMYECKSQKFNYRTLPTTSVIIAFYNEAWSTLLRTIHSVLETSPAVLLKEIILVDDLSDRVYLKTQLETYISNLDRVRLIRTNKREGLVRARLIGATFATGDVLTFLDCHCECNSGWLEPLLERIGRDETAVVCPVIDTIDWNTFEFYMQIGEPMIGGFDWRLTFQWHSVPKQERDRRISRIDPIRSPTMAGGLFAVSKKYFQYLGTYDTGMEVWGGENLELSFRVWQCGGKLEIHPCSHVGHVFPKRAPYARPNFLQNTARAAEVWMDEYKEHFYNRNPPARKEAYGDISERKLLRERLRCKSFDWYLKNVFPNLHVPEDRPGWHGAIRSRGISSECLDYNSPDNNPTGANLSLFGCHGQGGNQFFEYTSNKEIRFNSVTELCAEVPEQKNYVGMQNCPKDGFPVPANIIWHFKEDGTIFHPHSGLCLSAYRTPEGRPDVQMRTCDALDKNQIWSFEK
Description: MALDI-TOF time-course in terminal reactions were performed in reactions of 25 μl containing 2.5 nmol acceptor (glyco)peptide, 40 nmol UDP-GalNAc, and 0.4 μg GalNAc-T4. Sampling of reactions (1 μl) were purified by nano-scale reversed-phase chromatography (Poros R3, PerSeptive Biosystem) and applied directly to the probe with matrix (41). The amount of GalNAc-transferase added was adjusted so that the reaction with the appropriate peptide was near completion in six hours. Reactions were incubated at 37° C. in a shaker bath. At times 0, 2 hours, and 16 hours a 1 μl aliquot was taken and purified. Mass spectra were acquired on either Voyager-DE mass spectrometer equipped with delayed extraction (Perseptive Biosystem Inc.). The matrix used was 2,5-dihydroxybenzoic acid (10 mg/ml, Hewlett-Packard) dissolved in a 2:1 mixture of 0.1% trifluoroacetic acid in 30% aqueous acetonitrile (Rathburn Ltd.).
Quantification of purified proteins was done by Coomassie stained SDS-PAGE and titration of immunoreactivity with the monoclonal antibody, UH6(4G2) (8). […] Wild-type GalNAc-T4 and mutant GalNAc-T4, GalNAc-T4^459H, were analysed with unglycosylated peptides (represented by PSGL-1) or GalNAc glycosylated glycopeptides (represented by GalNAc3TAP25V21) in reactions of 25 μl containing 2.5 nmol acceptor (glyco)peptide, 40 nmol UDP-GalNAc, and 0.4 μg GalNAc-T4. Time-course assays were motioned by MALDI-TOF. Sampling of reactions (1 μl) were purified by nano-scale reversed-phase chromatography (Poros R3, PerSeptive Biosystem) and applied directly to the probe with matrix. Evaluation of inhibition of the glycopeptide specificity of wild-type GalNAc-T4 with free sugars was performed to establish if the lectin domain recognized carbohydrate. […] Further, analysis was performed with 10 mM α-D-GalNAc-1-benzyl, αGlcNAc-benzyl, and fully occupied GalNAc-glycopeptide, GalNAc6TAP25, at 5 mM.

| Compound | Secreted MUC1 in medium [1] | IC50 [2] [mM] | IC50 [3] [mM] | Inhibition of glycosylation dependent specificity of GalNAc-T4 (GalNAc-T4) |
| --- | --- | --- | --- | --- |
| CC(=O)N[C@H]1[C@@H](OCc2ccccc2)O[C@H](CO)[C@H](O)[C@@H]1O [GalNAcα-benzyl] | inhibition of secreted MUC1 | – | – | – |
| CC(=O)N[C@H]1[C@@H](OCc2ccccc2)O[C@H](CO)[C@@H](O)[C@@H]1O [GlcNAcα-benzyl] | – | > 100 | > 100 | did not inhibit |
